Biological target: T1, Tyrosine-protein phosphatase non-receptor type 11 (Homo sapiens, UniProt Q06124)
T1 sequence (Q06124 whole entry): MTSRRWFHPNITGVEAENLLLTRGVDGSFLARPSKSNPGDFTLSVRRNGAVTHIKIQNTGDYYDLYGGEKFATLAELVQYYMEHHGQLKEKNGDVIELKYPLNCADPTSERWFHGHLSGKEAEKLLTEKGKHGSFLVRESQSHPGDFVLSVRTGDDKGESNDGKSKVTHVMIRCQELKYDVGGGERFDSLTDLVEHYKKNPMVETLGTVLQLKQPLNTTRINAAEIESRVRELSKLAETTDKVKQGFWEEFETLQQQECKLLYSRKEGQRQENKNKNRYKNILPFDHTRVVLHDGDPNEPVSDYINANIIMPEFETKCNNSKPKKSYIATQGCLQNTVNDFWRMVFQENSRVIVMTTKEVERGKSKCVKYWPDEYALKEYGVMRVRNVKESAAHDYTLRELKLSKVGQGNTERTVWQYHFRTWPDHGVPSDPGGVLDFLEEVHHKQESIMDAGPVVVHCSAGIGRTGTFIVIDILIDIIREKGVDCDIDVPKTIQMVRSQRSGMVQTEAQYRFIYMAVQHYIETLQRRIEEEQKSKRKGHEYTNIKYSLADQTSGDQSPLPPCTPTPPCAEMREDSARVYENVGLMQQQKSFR
Assay: Assay of Full-Length SHP2 Phosphatase Activity Assay
Protocol: 1. Reagents and MaterialsHuman full-length SHP2 recombinant protein: BPS Bioscience, Cat #79018;SHP2 substrate DiFMUP (1 mM): BPS Bioscience, Cat #79769;SHP2 activating peptide (100 μM): BPS Bioscience, Cat #79319-2;DTT: Merck, Cat #DTT-RO;384-well plate: Corning, Cat #3575;96-well plate: Thermo Fisher Scientific, Cat #249952;Instrument: EnVision 2104, PerkinElmer.2. Preparation of Reaction SolutionsThe test compound was dissolved in DMSO and diluted with DMSO to 100.0 μM, and the compound was further 3-fold diluted with DMSO to: 100.00, 33.33, 11.11, 3.70, 1.23, 0.41, 0.14 and 0.05 μM.

| SMILES | IC50 [nM] |
| --- | --- |
| C#Cc1ccc2c(c1)[C@@H](N)C1(CCN(c3cc(=O)n(-c4ccc(F)c(F)c4Cl)c(C)n3)CC1)C2 (atropisomer, axis not shown) [US20240140931, Compound 113] | 5 |
| C#Cc1ccc2c(c1)[C@@H](N)C1(CCN(c3cc(=O)n(-c4cc(OC)ccc4Cl)c(C)n3)CC1)C2 [US20240140931, Compound 44] | 13 |
| Cc1nc(N2CCC3(CC2)Cc2ccc(C#CCN(C)C)cc2[C@H]3N)cc(=O)n1-c1cccc(Cl)c1Cl [US20240140931, Compound 52] | < 0.5 |
| Cc1nc(N2CCC3(CC2)Cc2ccc(SC4COC4)cc2[C@H]3N)cc(=O)n1-c1cccc(Cl)c1Cl [US20240140931, Compound 81] | 2 |

Other lines, results leading:

| IC50 [nM] | SMILES |
| --- | --- |
| > 100 | C#Cc1ccc2c(c1)[C@@H](N)C1(CCN(c3cc(=O)n(-c4cccc(C#N)c4Cl)c(C)n3)CC1)C2 [US20240140931, Compound 267] |
| 1 | C#Cc1ccc2c(c1)[C@@H](N)C1(CCN(c3cc(=O)n(-c4cccc(C#N)c4Cl)c(C)n3)CC1)C2 [US20240140931, Compound 268] |

— BindingDB's records for patent US20240140931 (Hutchmed, 2024)
